US3988466A, “Prevention of gastric lesions” (priority 1973, dated 1976)

Key:
[1] = Effect of L-glutamine on absorption of aspirin in rats (plasma salicylate level; Experiment A); type: in vivo, male Wistar strain rats; settings: L-glutamine administered together with aspirin
Protocol: In this Experiment, 2 groups of male Wistar strain rats weighing about 280-320 g, each consisting of 12 animals are fixed in supine position. Under ether anesthesia, the carotid artery is cannulated for blood sampling. Upon recovery from the anesthesia, one group is treated with 1000 mg/kg of L-glutamine suspended in 1% carboxymethylcellulose solution and the other group (control) with 5 ml/kg of 1% carboxymethylcellulose solution alone, by oral administration. […] The same treatments are applied also to 2 groups of pylorus-ligated rats, each consisting of 5 animals.
The blood sample is centrifuged at 8,000 r.p.m. for 5 minutes and 20 μl of plasma is collected for the measurement of salicylate concentration. Salicylate concentration of plasma is determined according to the method of Lever & Powell [Lever, M. and Powell, J. C.: Biochem. Med., 7, 203 (1973)].

[2] = test system: yeast-induced fever in rats; experiment: Effect of L-glutamine on antipyretic activity of aspirin in rats (Experiment B); type: in vivo, male Wistar strain rats; settings: for Rectal temperature: L-glutamine 1000 mg/kg oral
Protocol: In this Experiment, male Wistar strain rats weighing about 90-100 g are treated with 2.5 ml/rat of a suspension of yeast (Brewers Yeast, product of Nutritional Biochem. Co., U.S.A.) in physiological saline (concentration: 250 mg/ml), by subcutaneous injection in the back, according to the method of Gleen et al [Gleen, E. M. et al: J. Pharma. Exp. Therp., 155, 157 (1967)]. The animals are then fasted. The animals showing an increased rectal temperature of 38° C or more after 17 hours are selected for use in experiment. […] As a control, one group is treated with 105 ml of 1% carboxymethylcellulose solution alone. After the treatment, the rectal temperature is measured at the time indicated.

NC(=O)CC[C@H](N)C(=O)O [L-glutamine]
effect on absorption of aspirin (in words) [1]: does not inhibit the absorption of aspirin | Rectal temperature ([2]; 0 hour): 38.6±0.2 °C | Rectal temperature ([2]; 1 hour): 38.5±0.2 °C | Rectal temperature ([2]; 2 hours): 38.2±0.3 °C | Rectal temperature ([2]; 4 hours): 38.1±0.4 °C | Rectal temperature ([2]; 6 hours): 38.2±0.3 °C | influence on antipyretic activity of aspirin ([2]; presence of L-glutamine): not substantially influenced
